From US9765056B2, “Indole and pyrrole compounds, a process for their preparation and pharmaceutical compositions containing them” (LES LABORATOIRES SERVIER, priority 2013, dated 2017)
Where a name gives a salt, the structure may show the parent alone.

Key:
[1] = target: Bcl-2 protein (histag-Bcl-2, UniProtKB P10415) (Homo sapiens (Human), UniProt P10415); assay: Inhibition of Bcl-2 by the fluorescence polarisation technique; assay type: binding; conditions: fluorescence polarisation test; method A, or method B where underlined (underlining not visible); read-out: IC50 (nM) Bcl-2 FP
From the text: Inhibition of Bcl-2 by the fluorescence polarisation technique

[2] = test system: RS4;11 leukaemia tumour line; assay: In vitro cytotoxicity, Microculture Tetrazolium Assay (MTT); assay type: cell-based; conditions: Homo sapiens; RS4;11 cells, 48 hours exposure
Procedure: The cytotoxicity studies were carried out on the RS4;11 leukaemia tumour line.
The cells are distributed onto microplates and exposed to the test compounds for 48 hours. The cell viability is then quantified by a colorimetric assay, the Microculture Tetrazolium Assay (Cancer Res., 1987, 47, 939-942).

Bcl-2 protein, sequence (P10415 whole entry): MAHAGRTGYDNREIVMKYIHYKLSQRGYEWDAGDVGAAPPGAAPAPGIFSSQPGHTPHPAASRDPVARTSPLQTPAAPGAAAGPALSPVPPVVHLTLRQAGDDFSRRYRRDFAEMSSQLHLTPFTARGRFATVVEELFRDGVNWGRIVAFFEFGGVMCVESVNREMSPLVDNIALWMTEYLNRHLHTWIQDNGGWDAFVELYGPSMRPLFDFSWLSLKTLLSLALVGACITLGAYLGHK

CCC1COc2cc(-n3cc(C(=O)N(c4ccccc4)c4ccc(O)cc4)c4ccccc43)c(C(=O)N3Cc4ccccc4C[C@H]3CN3CCN(C)CC3)cc2O1 (stereo partly drawn) [Example 185, 1-{2-Ethyl-7-[(3S)-3-[(4-methylpiperazin-1-yl)methyl]-1,2,3,4-tetrahydroisoquinoline-2-carbonyl]-2,3-dihydro-1,4-benzodioxin-6-yl}-N-(4-hydroxyphenyl)-N-phenyl-1H-indole-3-carboxamide]
IC50 [1]: 17.3 nM
IC50 [2]: 422 nM

Cc1cc(C(=O)N(c2ccccc2)c2ccc(O)cc2)cn1-c1cc(Br)ccc1C(=O)N1Cc2ccccc2C[C@H]1CN1CCOCC1 [Example 42, 1-(5-Bromo-2-{[(3S)-3-(morpholin-4-ylmethyl)-3,4-dihydroisoquinolin-2(1H)-yl]carbonyl}phenyl)-N-(4-hydroxyphenyl)-5-methyl-N-phenyl-1H-pyrrole-3-carboxamide]
IC50 [1]: 23.1 nM
IC50 [2]: 353 nM

NC[C@@H]1Cc2ccccc2CN1C(=O)c1ccccc1-n1cc(C(=O)N(c2ccccc2)c2ccccc2)c2ccccc21 [Example 123, 1-{2-[(3S)-3-(Aminomethyl)-1,2,3,4-tetrahydroisoquinoline-2-carbonyl]-phenyl}-N,N-diphenyl-1H-indole-3-carboxamide]
IC50 [1]: 90 nM
IC50 [2]: 2370 nM

Cc1cc(C(=O)N(c2ccc(O)cc2)c2ccc(O)cc2)cn1-c1cc(Cl)ccc1C(=O)N1Cc2ccccc2C[C@H]1CN1CCN(C)CC1 [Example 67, 1-(5-Chloro-2-{[(3S)-3-[(4-methylpiperazin-1-yl)methyl]-3,4-dihydroisoquinolin-2(1H)-yl]carbonyl}phenyl)-N,N-bis(4-hydroxyphenyl)-5-methyl-1H-pyrrole-3-carboxamide]
IC50 [1]: 5.9 nM
IC50 [2]: 101 nM

CN1CCN(C[C@@H]2Cc3ccccc3CN2C(=O)c2cc3c(cc2-n2cc(C(=O)N(c4ccc(O)c(F)c4)c4ccc5c(ccn5C)c4)c4ccccc42)OCO3)CC1 [Example 97, N-(3-Fluoro-4-hydroxyphenyl)-N-(1-methyl-1H-indol-5-yl)-1-(6-{[(3S)-3-[(4-methylpiperazin-1-yl)methyl]-3,4-dihydroisoquinolin-2(1H)-yl]carbonyl}-1,3-benzodioxol-5-yl)-1H-indole-3-carboxamide hydrochloride]
IC50 [1]: 6.1 nM
IC50 [2]: 73.2 nM

CN1CCN(C[C@@H]2Cc3ccccc3CN2C(=O)c2ccc(Cl)cc2-n2cc(C(=O)N(c3ccc(O)cc3)c3ccc4[nH]ccc4c3)c3ccccc32)CC1 [Example 72, 1-(5-Chloro-2-{[(3S)-3-[(4-methylpiperazin-1-yl)methyl]-3,4-dihydroisoquinolin-2(1H)-yl]carbonyl}phenyl)-N-(4-hydroxyphenyl)-N-(1H-indol-5-yl)-1H-indole-3-carboxamide]
IC50 [1]: 4.5 nM
IC50 [2]: 43.4 nM

CN1CCN(C[C@@H]2Cc3ccccc3CN2C(=O)c2cc3c(cc2-n2cc(C(=O)N(c4ccc(O)cc4)c4ccc5occc5c4)c4ccccc42)OCO3)CC1 [Example 44, N-(1-Benzofuran-5-yl)-N-(4-hydroxyphenyl)-1-(6-{[(3S)-3-[(4-methylpiperazin-1-yl)methyl]-3,4-dihydroisoquinolin-2(1H)-yl]carbonyl}-1,3-benzodioxol-5-yl)-1H-indole-3-carboxamide]
IC50 [1]: 6.8 nM
IC50 [2]: 164 nM

CN1CCN(C[C@@H]2Cc3ccccc3CN2C(=O)c2cc3c(cc2-n2cc(C(=O)N(c4ccc(O)cc4)c4ccc5[nH]ccc5c4)c4cc(Cl)ccc42)OCO3)CC1 [Example 88, 5-Chloro-N-(4-hydroxyphenyl)-N-(1H-indol-5-yl)-1-(6-{[(3S)-3-[(4-methylpiperazin-1-yl)methyl]-3,4-dihydroisoquinolin-2(1H)-yl]carbonyl}-1,3-benzodioxol-5-yl)-1H-indole-3-carboxamide]
IC50 [1]: 19.6 nM
IC50 [2]: 541 nM
